Experiments:
MCF-7 (breast carcinoma) = experiment: Sulforhodamine B (SRB) assay, MCF-7; format: cell-based; conditions: Homo sapiens, MCF7, 48 h, read-out: IC50 (µM) MCF-7
Text: (§1) Roswell Park Memorial Institute (RPMI)-1640 medium, Dulbecco’s modified eagle medium high glucose (DMEM; Gibco) supplemented with 10% Fetal Bovine Serum (FBS; Gibco, and 1% antibiotic-antimycotic (Gibco; Anti-Anti 100x), phosphate-buffered saline (PBS; Gibco), 0.25% trypsin (Gibco), sodium pyruvate (Sigma-Aldrich), HEPES (Gibco). Human cancer cell lines A549 (lung carcinoma), MCF-7 (breast carcinoma), MDAMB-231 (breast carcinoma), A375 (melanoma), and normal human embryonic kidney cells (HEK-293) were taken from Dr. Sheikh Tasduq Abdullah and Dr. Boobalan Gopu (CSIR-IIIM).
(§2) Their activity was tested against human cancer cell lines A549 (lung carcinoma), MCF-7 (breast carcinoma), MDAMB-231 (breast carcinoma), and A375 (melanoma). The selectivity index (SI) was calculated against normal human embryonic kidney cells (HEK-293) to determine cytotoxic selectivity. The cells (7 × 10^3 cells/well) were seeded on 96 well plates, followed by overnight incubation. Multiple concentrations (50 µM, 20 µM, 10 µM, 5 µM, and 1 µM) of compounds were used to treat the cells, except for control wells that contained only cells with media. After 48 h of incubation, the cells attached to wells were fixed with 50 µL of chilled 50% TCA, and the plate was kept at 4°C for 1 h, as described previously ([Malik et al., 2023]; [Kumar et al., 2024]). The plate was washed (3–4 times) with distilled water (250 µL/well) and air-dried for 24 h. The next day, 100 µL of 0.4% SRB dye was added to each well, and the cells were incubated at room temperature for 1 h. The plate contents were discarded and washed 3 times with 1% glacial acetic acid (250 µL/well), followed by one last wash with distilled water and air drying for another 24 h. Subsequently, 100 µL of Tris base (10 mM, pH 10.5) was added to each well to dissolve the dye bound to fixed cells. The dissolved dye indicating growth inhibition was quantified by calculating optical density at 540 nm via microplate reader (Tecan infinite M200PRO, Switzerland). The IC50 values were calculated using GraphPad Prism Software Version 5.0. A favorable Selectivity Index (SI) is the most relevant parameter to detect anti-cancer potential in vitro as it indicates drug safety against cancer cells versus normal cells, efficacy of the drug, and selectivity. The selectivity index is calculated by using the formula. Selective Index=IC50 in Normal cells/IC50 in Cancerous cell lines

[1] = test system: MDA-MB 231 (breast carcinoma); experiment: Sulforhodamine B (SRB) assay, MDA-MB 231; format: cell-based; conditions: Homo sapiens, MDA-MB-231, 48 h, read-out: IC50 (µM) MDA-MB 231
Text: as §1, §2

[2] = test system: normal human embryonic kidney cells (HEK-293); experiment: Sulforhodamine B (SRB) assay, normal cells HEK-293; format: cell-based; conditions: HEK293, 48 h, normal cell line, mean ± SD (n = 3)
Text: as §1, §2

A375 (melanoma) = experiment: Sulforhodamine B (SRB) assay, A375; format: cell-based; conditions: Homo sapiens; for IC50: A-375, 48 h, read-out: IC50 (µM) A375
Text: as §1, §2

A549 (lung carcinoma) = experiment: Sulforhodamine B (SRB) assay, A549; format: cell-based; conditions: Homo sapiens, A549, 48 h, read-out: IC50 (µM) A549
Text: as §1, §2

mitosis cell cycle = test system: mitosis cell cycle; design: method as in Taylor, 1965; conditions: concentration of 50 nM; ref Taylor, 1965; cited from earlier work
MCF-7 = experiment: cells; format: cell-based; conditions: Homo sapiens, MCF7; MTT assay, 48 h
Protocol: (§3) Cell viability was assessed using the MTT assay, as outlined in previous studies ([Majeed et al., 2014]; [Amin et al., 2025]). Briefly, A549, A375, MCF-7 and MDA-MB231 cells (10 × 10^3 cells/well) were seeded in 96-well plates and incubated for 24 h at 37°C in a 5% CO2 atmosphere. After this incubation, the cells were treated with test compounds for another 48 h. At 44th hour of treatment, the cells were incubated with MTT (2.5 mg/mL) for additional 4 h. At 48th hour, DMSO was added (100 µL/well), to dissolve formazan crystals. Absorbance was measured at 570 nm. Cell viability was calculated relative to untreated controls. IC50 values were determined from independent triplicate experiments using GraphPad™ Prism 8.0 software. […]

A549 = experiment: cells; format: cell-based; conditions: Homo sapiens, MTT assay, 48 h
Protocol: as §3

A375 = experiment: cells; format: cell-based; conditions: Homo sapiens, A-375; MTT assay, 48 h
Protocol: as §3

MDA-MB 231 = experiment: cells; format: cell-based; conditions: Homo sapiens, MTT assay, 48 h
Protocol: as §3

A375 cells [3] = experiment: Colony formation assay; format: cell-based, human
Protocol: A colony formation assay was performed to assess the ability of 3g to inhibit the reproductive and colony forming ability of A375 cells. The cells were seeded into a 6-well plate with a 1 × 10^3 cells/well density. Next day, the cells were treated with multiple concentrations of 3g, such as 30 µM, 20 µM, 10 µM and 1 µM, in fresh media for 48 h. The media was changed on alternate days till day 10, till untreated (negative control) became confluent. On day 10, the cells were washed with PBS, and colonies were observed under a microscope. The cells/colonies were fixed with 100% methanol for 20 min at 4°C and stained with 0.5% solution of crystal violet for 30 min at room temperature, as described previously ([Kumar et al., 2024]). Subsequently, the dye was removed from plates, and excess dye was rinsed by washing it with distilled water (3–5 times), followed by air drying. The colonies were counted using ImageJ software, and photographs were taken with a digital camera. The percentage of colonies formed was calculated using the formula mentioned below. Colony formation rate (%)=Number of colonies in treatment group/Number of colonies in control group×100

A375 cells [4] = experiment: Wound healing (cell scratch) assay; format: cell-based, human
Protocol: Cell scratch assay, also known as wound healing assay, was performed to evaluate the impact of 3g on migration of A375 cells. The cells were seeded into the 6-well plate with […] density. The next day, in fresh media, a horizontal scratch was administered in the 90% confluent monolayer using a sterile 200 µL tip, as described previously, with slight modification ([Kumar et al., 2024]). The cells were incubated for 48 h with multiple concentrations of 3g such as 30 µM, 20 µM, 10 µM and 1 µM. Wound healing was observed using a Digital Inverted Fluorescence Microscope (Life Technologies EVOS FLc). The percentage of wound healing was calculated as. Wound Closure (%)=[…]

SMILES | IC50 (MCF-7 (breast carcinoma)) [µM] | IC50 [1] [µM] | IC50 [2] [µM] | IC50 (A375 (melanoma)) [µM] | IC50 (A549 (lung carcinoma)) [µM] | further results
CCOC(=O)C1=C(c2cc(F)c(Cl)nc2Cl)NC(=O)NC1c1c2c(c(OC)c(OC)c1OC)-c1ccc(OC)c(=O)cc1[C@H](NC(C)=O)CC2 (stereo partly drawn) [Compound 3e, Ethyl 4-((R)-7-acetamido-1,2,3,10-tetramethoxy-9-oxo-5,6,7,9-tetrahydrobenzo [a]heptalen-4-yl)-6-(2,6-dichloro-5-fluoropyridin-3-yl)-2-oxo-1,2,3,4-tetrahydropyrimidine-5-carboxylate] | 45.1 ± 0.73 | > 50 | 40.3 ± 1.71 | > 50 | > 50 | 
CCOC(=O)C1=C(C)NC(=N)NC1c1c2c(c(OC)c(OC)c1OC)-c1ccc(OC)c(=O)cc1[C@H](NC(C)=O)CC2 (stereo partly drawn) [Compound 3b, Ethyl 4-((R)-7-acetamido-1,2,3,10-tetramethoxy-9-oxo-5,6,7,9-tetrahydrobenzo [a]heptalen-4-yl)-2-imino-6-methyl-1,2,3,4-tetrahydropyrimidine-5-carboxylate] | 44.7 ± 0.64 | > 50 | 38.3 ± 1.36 | > 50 | > 50 | 
CCOC(=O)C1=C(C(Cl)(Cl)Cl)NC(=O)NC1c1c2c(c(OC)c(OC)c1OC)-c1ccc(OC)c(=O)cc1[C@H](NC(C)=O)CC2 (stereo partly drawn) [Compound 3d, Ethyl 4-((R)-7-acetamido-1,2,3,10-tetramethoxy-9-oxo-5,6,7,9-tetrahydrobenzo [a]heptalen-4-yl)-2-oxo-6-(trichloromethyl)-1,2,3,4-tetrahydropyrimidine-5-carboxylate] | 43.79 ± 0.33 | > 50 | 36.1 ± 1.79 | > 50 | > 50 | 
COc1cc2c(c(OC)c1OC)-c1ccc(OC)c(=O)cc1[C@@H](NC(C)=O)CC2 [Colchicine] |  |  |  |  |  | block of mitotic cells (mitosis cell cycle): blocks almost all the prophase, metaphase, and anaphase cells
CCOC(=O)C1=C(OCC)NC(=O)NC1c1c2c(c(OC)c(OC)c1OC)-c1ccc(OC)c(=O)cc1[C@H](NC(C)=O)CC2 (stereo partly drawn) [Compound 3h, ethyl 4-((R)-7-acetamido-1,2,3,10-tetramethoxy-9-oxo-5,6,7,9-tetrahydrobenzo [a]heptalen-4-yl)-6-ethoxy-2-oxo-1,2,3,4-tetrahydropyrimidine-5-carboxylate] | 49.9 ± 2.72 | > 50 | 26.6 ± 2.65 | 35.2 ± 2.79 | > 50 | 
CCOC(=O)C1=C(C)NC(=S)NC1c1c2c(c(OC)c(OC)c1OC)-c1ccc(OC)c(=O)cc1[C@H](NC(C)=O)CC2 (some centres unmarked) [Compound 3a] | 40.6 ± 0.91 | > 50 | 29.66 ± 0.07 | > 50 | > 50 | 
CC(=O)O[C@H]1C(=O)[C@@]2(C)[C@H]([C@H](OC(=O)c3ccccc3)[C@]3(O)C[C@H](OC(=O)[C@H](O)[C@@H](NC(=O)c4ccccc4)c4ccccc4)C(C)=C1C3(C)C)[C@]1(OC(C)=O)CO[C@@H]1C[C@@H]2O [Paclitaxel] |  |  |  |  |  | IC50 (MCF-7): 0.014 ± 0.001 µM; IC50 (A549): 0.028 ± 0.008 µM; IC50 (A375): 0.017 ± 0.028 µM; IC50 (MDA-MB 231): 0.02 ± 0.002 µM
COC1=C(C(=O)C2CC2)C(c2c3c(c(OC)c(OC)c2OC)-c2ccc(OC)c(=O)cc2[C@@H](NC(C)=O)CC3)NC(=O)N1 (stereo partly drawn) [Compound 3j, N-((7S)-4-(5-(cyclopropanecarbonyl)-6-methoxy-2-oxo-1,2,3,4-tetrahydropyrimidin-4-yl)-1,2,3,10-tetramethoxy-9-oxo-5,6,7,9-tetrahydrobenzo [a]heptalen-7-yl) acetamide] | > 50 | > 50 | 39 ± 0.79 | > 50 | > 50 | 
COC1=C(C(=O)C2CC2)C(c2c3c(c(OC)c(OC)c2OC)-c2ccc(OC)c(=O)cc2[C@H](NC(C)=O)CC3)NC(=O)N1 (stereo partly drawn) [Compound 3i, N-((7R)-4-(5-(cyclopropanecarbonyl)-6-methoxy-2-oxo-1,2,3,4-tetrahydropyrimidin-4-yl)-1,2,3,10-tetramethoxy-9-oxo-5,6,7,9-tetrahydrobenzo [a]heptalen-7-yl) acetamide] | > 50 |  | 39.5 ± 1.36 | > 50 | > 50 | 
CCOC(=O)C1=C(C(F)(F)C(F)(F)F)NC(=O)NC1c1c2c(c(OC)c(OC)c1OC)-c1ccc(OC)c(=O)cc1[C@H](NC(C)=O)CC2 (stereo partly drawn) [Compound 3f, Ethyl 4-((R)-7-acetamido-1,2,3,10-tetramethoxy-9-oxo-5,6,7,9-tetrahydrobenzo [a]heptalen-4-yl)-2-oxo-6-(perfluoroethyl)-1,2,3,4-tetrahydropyrimidine-5-carboxylate] | 26.4 ± 2.79 | 46.6 ± 0.86 | 17.8 ± 1.3 | 28.3 ± 2.19 | > 50 | 
COc1c(OC)c2c(c(C3NC(=O)NC(C)=C3C(=O)Oc3ccccc3)c1OC)CC[C@@H](NC(C)=O)c1cc(=O)c(OC)ccc1-2 (stereo partly drawn) [Compound 3c, phenyl 4-((R)-7-acetamido-1,2,3,10-tetramethoxy-9-oxo-5,6,7,9-tetrahydrobenzo [a]heptalen-4-yl)-6-methyl-2-oxo-1,2,3,4-tetrahydropyrimidine-5-carboxylate] | 44.8 ± 0.68 | > 50 | 35.6 ± 2.97 | > 50 | > 50 | 
CCOC(=O)C1=C(C(F)(F)C(F)(F)F)NC(=O)NC1c1c2c(c(OC)c(OC)c1OC)-c1ccc(OC)c(=O)cc1[C@@H](NC(C)=O)CC2 (stereo partly drawn) [Compound 3g, Ethyl 4-((S)-7-acetamido-1,2,3,10-tetramethoxy-9-oxo-5,6,7,9-tetrahydrobenzo [a]heptalen-4-yl)-2-oxo-6-(perfluoroethyl)-1,2,3,4-tetrahydropyrimidine-5-carboxylate] | 15.7 ± 0.39 | 24.9 ± 2.7 | 15.8 ± 0.81 | 10.3 ± 0.56 | > 50 | percentage of colony growth formation (A375 cells [3]; 20 µM, 48 h treatment, A375 cells, untreated control 100%): 37.5%; inhibition of colony formation (A375 cells [3]; melanoma cells (abstract)): up to 62.5%; percentage of wound closure (A375 cells [4]; 20 µM, 48 h, A375 cells, untreated control 84%): 69%; reduction of migration potential (A375 cells [4]; melanoma cells (abstract)): 69%; inhibition at 20 µM (A375 (melanoma); A-375, read-out: growth inhibition): 60%

From PMC12246756 (Frontiers in Pharmacology, 2025)
